According to article PMC11063128 (Journal of the American Chemical Society, 2023):

T1: MMADHC (CblD) (Homo sapiens, UniProt Q9H3L0, C261S/C262S)
T1 sequence (Q9H3L0 1-296 C261S/C262S): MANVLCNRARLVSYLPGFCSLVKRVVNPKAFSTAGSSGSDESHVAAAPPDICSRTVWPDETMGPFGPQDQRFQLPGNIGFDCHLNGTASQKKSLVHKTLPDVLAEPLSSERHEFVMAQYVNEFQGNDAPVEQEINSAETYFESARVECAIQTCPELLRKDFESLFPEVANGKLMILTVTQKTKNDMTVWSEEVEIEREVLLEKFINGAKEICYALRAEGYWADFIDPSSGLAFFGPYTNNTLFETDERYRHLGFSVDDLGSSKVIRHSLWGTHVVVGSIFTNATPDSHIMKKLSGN

T2: C262S ^ΔNMMADHC–S–Cob(III) (human, UniProt Q9H3L0 116-296, C262S, thiolato-cob(III)alamin (cobalamin coordinated through a cysteine sulfur, -S-Cob(III)))
T2 sequence (looked up): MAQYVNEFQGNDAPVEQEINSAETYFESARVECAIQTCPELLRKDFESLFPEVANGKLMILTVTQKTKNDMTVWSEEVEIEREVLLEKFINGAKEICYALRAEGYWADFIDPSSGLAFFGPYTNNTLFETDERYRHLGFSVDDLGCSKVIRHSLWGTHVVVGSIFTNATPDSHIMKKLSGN


Assays:
MMADHC (CblD) = molecular target: T1, MMADHC (CblD); assay: UV-visible titration; format: binding
[1] = molecular target: T2, C262S ^ΔNMMADHC–S–Cob(III); assay: UV-visible absorbance titration

| Kd (MMADHC (CblD)) [µM] | stoichiometry N [1] | Molecule |
| --- | --- | --- |
| 8.4 ± 1.9 |  | H2OCbl |
|  | 1 | ^ΔNMTR, C-terminal half of human methionine synthase (cap, B12 and AdoMet domains, residues 661–1265) (domain or fragment, UniProt Q99707 661-1265, looked up) IQTDEWRNGPVEERLEYALVKGIEKHIIEDTEEARLNQKKYPRPLNIIEGPLMNGMKIVGDLFGAGKMFLPQVIKSARVMKKAVGHLIPFMEKEREETRVLNGTVEEEDPYQGTIVLATVKGDVHDIGKNIVGVVLGCNNFRVIDLGVMTPCDKILKAALDHKADIIGLSGLITPSLDEMIFVAKEMERLAIRIPLLIGGATTSKTHTAVKIAPRYSAPVIHVLDASKSVVVCSQLLDENLKDEYFEEIMEEYEDIRQDHYESLKERRYLPLSQARKSGFQMDWLSEPHPVKPTFIGTQVFEDYDLQKLVDYIDWKPFFDVWQLRGKYPNRGFPKIFNDKTVGGEARKVYDDAHNMLNTLISQKKLRARGVVGFWPAQSIQDDIHLYAEAAVPQAAEPIATFYGLRQQAEKDSASTEPYYCLSDFIAPLHSGIRDYLGLFAVACFGVEELSKAYEDDGDDYSSIMVKALGDRLAEAFAEELHERVRRELWAYCGSEQLDVADLRRLRYKGIRPAPGYPSQPDHTEKLTMWRLADIEQSTGIRLTESLAMAPASAVSGLYFSNLKSKYFAVGKISKDQVEDYALRKNISVAEVEKWLGPILGYDTD |
